Data set [1] relates to Mper1-luc Rat-1 fibroblasts (P2C4). In words: Cellular Circadian Assay (Mper1-luc reporter period lengthening). In kind it is cell-based. The conditions noted are these: effective micromolar concentration that induces a 1 hour lengthening of period. Here is the method: Cellular Circadian Assay Experimental Procedures
Stable transfection: Co-transfect Rat-1 fibroblast cultures at 30-50% confluence with vectors containing the Zeocin resistance selectable marker for stable transfection and an mPer1 promoter-driven luciferase reporter gene. After 24-48 hours, split the cultures onto 96 well plates and maintain in growth media supplemented with 50-100 μg/mL Zeocin (Invitrogen #45-0430) for 10-14 days. Assess Zeocin-resistant stable transfectants for reporter expression by supplementing growth media with 100 μM luciferin (Promega #E1603) and assaying luciferase activity on a TopCount scintillation counter (Packard Model #C384V00). […] Select Mper1-luc Rat-1 fibroblasts clone P2C4 for compound testing.
After synchronization, rinse cultures with 100 μL EMEM (Cellgro #10-010-CV) for 10 minutes at room temperature. […] Add compounds to be tested for circadian effects to CO2-independent media in 0.3% DMSO (final concentration).
Estimate in vivo luciferase activity by measuring relative light output on a TopCount scintillation counter (Packard Model #C384V00). Transfer plates from incubator to reader using an ORCA robotic arm (Beckman Instruments) and SAMI-NT automated scheduling software (Version 3.3; SAGIAN/Beckman Instruments).
Data Analysis Use Microsoft Excel and XLfit (Version 2.0.9; IDBS) to import, manipulate and graph data. Perform period analysis either by determining the interval between relative light output minima over several days or by Fourier Transform. […] Analyze the data by fitting a hyperbolic curve to the data expressed as period change (y-axis) versus the concentration of test compound (x-axis) in XLfit and interpolate the EC ? t+1h from this curve.

Another data set has as its target T1, casein kinase 1ε (Homo sapiens, UniProt P49674).
T1 construct: made in house
In words: Casein Kinase Epsilon 33P-ATP Filter Plate Assay for Screening CK1ε Inhibitors. Type of data set: biochemical.

Bounds are passed on as bounds.

Experimental findings from patent US7629376B2, “3-substituted-5- and 6-aminoalkyl indole-2-carboxylic acid amides and related analogs as inhibitors of casein kinase I” (Aventis Pharmaceuticals Inc., priority 2004, dated 2009) are described below.

T1 sequence (P49674 whole entry): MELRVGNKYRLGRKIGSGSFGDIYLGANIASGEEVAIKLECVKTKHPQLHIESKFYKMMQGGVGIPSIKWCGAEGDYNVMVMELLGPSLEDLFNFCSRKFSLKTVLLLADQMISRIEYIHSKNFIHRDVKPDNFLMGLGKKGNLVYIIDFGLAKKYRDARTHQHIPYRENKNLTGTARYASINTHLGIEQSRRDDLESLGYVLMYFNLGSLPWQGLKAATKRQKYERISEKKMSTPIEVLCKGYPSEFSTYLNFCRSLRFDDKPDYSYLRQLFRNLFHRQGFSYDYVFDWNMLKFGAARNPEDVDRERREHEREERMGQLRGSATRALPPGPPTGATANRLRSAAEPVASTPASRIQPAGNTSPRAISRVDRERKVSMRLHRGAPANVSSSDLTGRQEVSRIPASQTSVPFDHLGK
Protocol for casein kinase 1ε: Casein Kinase Epsilon ^33P-ATP Filter Plate Assay for Screening CK1ε Inhibitors
Purpose: This assay measures the ability of compounds to inhibit the phosphorylation of the substrate casein by the enzyme casein kinase 1ε using an in vitro ^33P-ATP filtration assay.
The above are stored as 100 μL aliquots at minus 80° C. • Compounds: • Supply compounds for testing as frozen 10 mM compound stock dissolved in 100% DMSO. Assay Conditions: • Final total assay volume per well is equal to 50 μL that one prepares as follows: • 5 μL of diluted compound stock (10, 1, 0.1, 0.01 or 0.001 μM), • 5 μL of dephosphorylated casein final concentration 0.2 μg/μL, • 20 μL of CK1ε final concentration 3 ng/μL, and • 20 μL of γ-^33P-ATP final concentration 0.02 μCi/μL mixed with cold ATP (10 μM final). Methodology: • 1. Prepare 500 mL of fresh assay buffer: 50 mM Tris pH 7.5, 10 nm MgCl2, 2 mM DTT and 1 mM EGTA • 2. Obtain compounds to be evaluated as 10 μL of 10 mM stock dissolved in 100% DMSO. Use a Biomek 2000 liquid handling robot, make serial dilutions to yield 10, 1, 0.1, 0.01 and 0.001 μM final compound dilutions added as 5 μL additions to Falcon U bottom plates. […] A routine screening assay will consist of 32 compounds, which equals 4 assay plates. • 3.
• 4. Add 5 μL of compound as indicated, then add 5 μL of dephosphorylated casein (dissolved in distilled H20) (0.2 μg/μL) and 20 μL CK1ε (3 ng/μL) to the appropriate wells. • 5. Finally add 20 μL γ-^33P-ATP (0.02 μCi/μL)/10 μM cold ATP (equals approximately 2×10^6 CPM per well). • 6. Vortes the Falcon U-Bottom assay plate containing the above 50 μL reaction volume and then incubate at room temperature for 2 hours. • 7. At the end of 2 hours, stop the reaction by the addition of 65 μL of ice cold 2 mM cold ATP (made up in assay buffer) to the assay plates using a Beckman Multimek. • 8. At the same time add 25 μL 100% ice cold TCA made up in distilled H20 to a matching number of Millipore MAPH filter plates. • 9. Using a handheld 8-channel pipettor, transfer 100 μL of the reaction mixture from the Falcon U-Bottom Plate to the Millipore MAPH filter plates presoaked with TCA. • 10. Mix the Millipore MAPH filter plates gently and allow to sit at room temperature for at least 30 minutes to precipitate the proteins. • 11. After 30 minutes, place the filter plates on a Millipore vacuum manifold and filter at no more than 8 mm Hg as the MAPH filters tend to “air lock” at higher vacuum settings. • 12. […] Allow the plates to dry overnight at room temperature. The next day add 40 μL Packard Microscint-20 Scintillation Fluid per well using a Titertek Multidrop dispenser; seal the plates and count for 2 minutes/well in a Packard Topcount NXT Scintillation Counter (to provide CPM values/well). Calculation: • 1. Import Counts Per Minute (CPM) data into a proprietary data calculation and archiving database (Activity Base by IDBS version 5.0). • 2. Column 1 for each plate reflects total phosphorylation activity of the enzyme in the absence of any inhibiting compound and thus represents 100%. Column 12 reflects any nonspecific phosphorylation/retained radioactivity activity in the absence of inhibiting compound and enzyme. Typically one observes approximately 1% of Total CPMs that are “nonspecific”. • 3.

On to “3-(3-Chlorophenylsulfanyl)-5-methylaminomethyl-1H-indole-2-carboxylic acid amide”, for which the “Cell Assay ECΔτ1h” value in data set [1] came out at 5.67 µM.
The same measure, in the same setting: in the case of “3-(3-Fluorophenylsulfanyl)-5-methylaminomethyl-1H-indole-2-carboxylic acid amide [Ie]” it was 3.34 µM.
For the compound `CC(C)(C)OC(=O)NCc1ccc2c(Sc3ccccc3)c(C(N)=O)[nH]c2c1` [IIb, (2-Carbamoyl-3-phenylsulfanyl-1H-indol-6-ylmethyl)-carbamic acid tert-butyl ester], the melting point was 118 to 121 °C. On casein kinase 1ε, this compound displayed an inhibition constant (Ki) of 2330 nM.
For the compound `COc1ccc(CNCc2ccc3c(Sc4ccccc4)c(C(N)=O)[nH]c3c2)c(OC)c1` [IIw, 6-[(2,4-Dimethoxybenzylamino)methyl]-3-phenylsulfanyl-1H-indole-2-carboxylic acid amide], the inhibition constant Ki at casein kinase 1ε turned out to be 290 nM.
Turning to `NC(=O)c1[nH]c2cc(CNCc3cccc(Oc4ccccc4)c3)ccc2c1Sc1ccccc1` [IIx, 6-[(3-Phenoxybenzylamino)methyl]-3-phenylsulfanyl-1H-indole-2-carboxylic acid amide], at casein kinase 1ε, the Ki was determined as 1190 nM.
For the compound `COc1cccc(CNCc2ccc3c(Sc4ccccc4)c(C(N)=O)[nH]c3c2)c1` [IIy, 6-[(3-Methoxybenzylamino)methyl]-3-phenylsulfanyl-1H-indole-2-carboxylic acid amide], the Ki at casein kinase 1ε was found to be 380 nM.
On casein kinase 1ε, `Cc1ccccc1CNCc1ccc2c(Sc3ccccc3)c(C(N)=O)[nH]c2c1` [IIz, 6-[(2-Methylbenzylamino)methyl]-3-phenylsulfanyl-1H-indole-2-carboxylic acid amide] displayed an inhibition constant Ki of 570 nM.
For the compound `NCc1ccc2[nH]c(C(N)=O)c(Sc3ccccc3)c2c1` [Ia, 5-Aminomethyl-3-phenylsulfanyl-1H-indole-2-carboxylic acid amide], in data set [1], the “Cell Assay ECΔτ1h” value was 0.44 µM. This compound showed a Ki at casein kinase 1ε of 70 nM.
Regarding `NC(=O)c1[nH]c2ccc(CN3CCN(c4ccc(F)cc4)CC3)cc2c1Sc1ccccc1` [Iaa, 5-[4-(4-Fluorophenyl)piperazin-1-ylmethyl]-3-phenylsulfanyl-1H-indole-2-carboxylic acid amide], the Ki on casein kinase 1ε was above 10000 nM.
On the same count and under the same terms, the same measure for `COc1cc(C#N)c(NCc2ccc3[nH]c(C(N)=O)c(Sc4ccccc4)c3c2)cc1OC` [Iab, 5-[(2-Cyano-4,5-dimethoxyphenylamino)methyl]-3-phenylsulfanyl-1H-indole-2-carboxylic acid amide]: above 10000 nM.
Still for that read-out and setting: in the case of `NC(=O)c1[nH]c2ccc(CNc3cccc(C(F)(F)F)c3)cc2c1Sc1ccccc1` [Iac, 3-Phenylsulfanyl-5-[(3-trifluoromethyl-phenylamino)methyl]-1H-indole-2-carboxylic acid amide] it was around 10000 nM; in that of `CCNCc1ccc2[nH]c(C(N)=O)c(Sc3ccccc3)c2c1` [Iad, 5-Ethylaminomethyl-3-phenylsulfanyl-1H-indole-2-carboxylic acid amide], 90 nM; in that of `CCCNCc1ccc2[nH]c(C(N)=O)c(Sc3ccccc3)c2c1` [Iae, 3-Phenylsulfanyl-5-propylaminomethyl-1H-indole-2-carboxylic acid amide], 580 nM.
`CC(NCc1ccc2[nH]c(C(N)=O)c(Sc3ccccc3)c2c1)C(N)=O` (stereo not drawn) [Iaf, 5-[(1-Carbamoylethylamino)methyl]-3-phenylsulfanyl-1H-indole-2-carboxylic acid amide] had a Ki at casein kinase 1ε of 390 nM.
`COc1cccc(NCc2ccc3[nH]c(C(N)=O)c(Sc4ccccc4)c3c2)c1` [Iag, 5-[(3-Methoxyphenylamino)methyl]-3-phenylsulfanyl-1H-indole-2-carboxylic acid amide] came in with an inhibition constant (Ki) on casein kinase 1ε of 2230 nM.
As for `CCCCc1ccc(NCc2ccc3[nH]c(C(N)=O)c(Sc4ccccc4)c3c2)cc1` [Iah, 5-[(4-Butylphenylamino)methyl]-3-phenylsulfanyl-1H-indole-2-carboxylic acid amide], the affinity at casein kinase 1ε, expressed as Ki, was 4280 nM.
Turning to `NC(=O)c1[nH]c2ccc(CNc3ccccc3F)cc2c1Sc1ccccc1` [Iai, 5-[(2-Fluorophenylamino)methyl]-3-phenylsulfanyl-1H-indole-2-carboxylic acid amide], the “Cell Assay ECΔτ1h” value in data set [1] turned out to be 6.91 µM. The compound also displayed a Ki on casein kinase 1ε of 6850 nM.
At casein kinase 1ε, `CC(C)NCc1ccc2[nH]c(C(N)=O)c(Sc3ccccc3)c2c1` [Iaj, 5-(Isopropylaminomethyl)-3-phenylsulfanyl-1H-indole-2-carboxylic acid amide] came in with an inhibition constant (Ki) of 540 nM.
For the compound `NC(=O)c1[nH]c2ccc(CNCc3ccccc3)cc2c1Sc1ccccc1` [If, 5-(Benzylaminomethyl)-3-phenylsulfanyl-1H-indole-2-carboxylic acid amide], the inhibition constant Ki at casein kinase 1ε turned out to be 710 nM.
On to `CNCc1ccc2c(c1)c(Sc1ccccc1)c(C(N)=O)n2C` [Ig, 1-Methyl-5-methylaminomethyl-3-phenylsulfanyl-1H-indole-2-carboxylic acid amide], for which the inhibition constant (Ki) on casein kinase 1ε was 4450 nM.
`NC(=O)c1[nH]c2ccc(CN3CCC(CO)CC3)cc2c1Sc1ccccc1` [Ih, 5-(4-Hydroxymethylpiperidin-1-ylmethyl)-3-phenylsulfanyl-1H-indole-2-carboxylic acid amide] gave an inhibition constant Ki on casein kinase 1ε of 1740 nM.
Same read-out and setting: in the case of `NC(=O)c1[nH]c2ccc(CN3CCOCC3)cc2c1Sc1ccccc1` [Ii, 5-Morpholin-4-ylmethyl-3-phenylsulfanyl-1H-indole-2-carboxylic acid amide] it was 240 nM; in that of `CCCNCc1ccc2[nH]c(C(N)=O)c(Sc3ccccc3)c2c1` [Ij, 3-Phenylsulfanyl-5-propylaminomethyl-1H-indole-2-carboxylic acid amide], 200 nM.
The same measure, in the same setting: in the case of `CCCCNCc1ccc2[nH]c(C(N)=O)c(Sc3ccccc3)c2c1` [Ik, 5-Butylaminomethyl-3-phenylsulfanyl-1H-indole-2-carboxylic acid amide] it was 93 nM; in that of `NC(=O)c1[nH]c2ccc(CN3CCCCC3)cc2c1Sc1ccccc1` [Il, 3-Phenylsulfanyl-5-piperidin-1ylmethyl-1H-indole-2-carboxylic acid amide], 880 nM.
For `CCCCCNCc1ccc2[nH]c(C(N)=O)c(Sc3ccccc3)c2c1` [Im, 5-Pentylaminomethyl-3-phenylsulfanyl-1H-indole-2-carboxylic acid amide], the “Cell Assay ECΔτ1h” value in data set [1] worked out at 4.55 µM. This compound also registered an inhibition constant (Ki) on casein kinase 1ε of 64 nM.
Consider `NC(=O)c1[nH]c2ccc(CN3CCCC(C(N)=O)C3)cc2c1Sc1ccccc1` (stereo not drawn) [Io, 5-(3-Carbamoylpiperidin-1-ylmethyl)-3-phenylsulfanyl-1H-indole-2-carboxylic acid amide], for which the inhibition constant (Ki) at casein kinase 1ε was around 10000 nM.
In the case of `NC(=O)c1[nH]c2ccc(CN3CCN(c4ncccn4)CC3)cc2c1Sc1ccccc1` [Ip, 3-Phenylsulfanyl-5-(4-pyrimidin-2-yl-piperazin-1-ylmethyl)-1H-indole-2-carboxylic acid amide], in data set [1], the “Cell Assay ECΔτ1h” value stood at 1.87 µM. Besides, the inhibition constant Ki at casein kinase 1ε is 74 nM.
`NC(=O)c1[nH]c2ccc(CN3CCN(CC=Cc4ccccc4)CC3)cc2c1Sc1ccccc1` [Iq, 5-[4-(3-Phenylpropenyl)piperazin-1-ylmethyl]-3-phenylsulfanyl-1H-indole-2-carboxylic acid amide]: the “Cell Assay ECΔτ1h” value in data set [1] was above 3 µM. The same compound displayed a Ki on casein kinase 1ε of 310 nM.
Regarding `CC(C)(C)OC(=O)N1CCCN(Cc2ccc3[nH]c(C(N)=O)c(Sc4ccccc4)c3c2)CC1` [Ir, 4-(2-Carbamoyl-3-phenylsulfanyl-1H-indol-5-ylmethyl)-[1,4]diazepane-1-carboxylic acid tert-butyl ester], the “Cell Assay ECΔτ1h” value in data set [1] is above 10 µM. The same compound yielded a Ki on casein kinase 1ε of 130 nM.
Consider `NC(=O)c1[nH]c2ccc(CN3CCCNCC3)cc2c1Sc1ccccc1` [Is, 5-[1,4]Diazepan-1-ylmethyl-3-phenylsulfanyl-1H-indole-2-carboxylic acid amide], for which, in data set [1], the “Cell Assay ECΔτ1h” value came to 7.85 µM. The compound also registered a Ki at casein kinase 1ε of 120 nM.
The like results for `NC(=O)c1[nH]c2ccc(CNC3CC4CCC3C4)cc2c1Sc1ccccc1` (stereo not drawn) [It] were, in that order, 2.70 µM and 450 nM.
Compound `NC(=O)c1[nH]c2ccc(CNc3ccc4ncccc4c3)cc2c1Sc1ccccc1` [Iu, 3-Phenylsulfanyl-5-(quinolin-6-ylaminomethyl)-1H-indole-2-carboxylic acid amide] yielded an inhibition constant Ki at casein kinase 1ε of 600 nM.
On casein kinase 1ε, `CC(CO)(CO)NCc1ccc2[nH]c(C(N)=O)c(Sc3ccccc3)c2c1` [Iv, 5-[(2-Hydroxy-1-hydroxymethyl-1-methyl-ethylamino)methyl]-3-phenylsulfanyl-1H-indole-2-carboxylic acid amide] displayed a Ki of 360 nM.
On the same count and under the same terms, the same measure for `NC(=O)c1[nH]c2ccc(CN3CCCC3CO)cc2c1Sc1ccccc1` (stereo not drawn) [Iw, 5-(2-Hydroxymethyl-pyrrolidin-1-ylmethyl)-3-phenylsulfanyl-1H-indole-2-carboxylic acid amide]: 65 nM.
As for `NC(=O)c1[nH]c2ccc(CN3CCC4(CC3)OCCO4)cc2c1Sc1ccccc1` [Iz, 5-(1,4-Dioxa-8-aza-spiro[4,5]dec-8-ylmethyl)-3-phenylsulfanyl-1H-indole-2-carboxylic acid amide], the Ki on casein kinase 1ε came to 320 nM.
